Results taken from patent US20220380383A1, “NEUROPROTECTIVE PDI MODULATING SMALL MOLECULES AND METHODS OF USE THEREOF” (THE TRUSTEES OF COLUMBIA UNIVERSITY IN THE CITY OF NEW YORK, priority 2018, published 2022).
Converted amounts (≈) assume the structure as drawn. Like-named read-outs stand apart in the source and are kept apart here.

Assays:
[1] = biological target: T1, human catalytic PDI A1 a domain (PDIa) (Homo sapiens, UniProt P07237); test: Isothermal titration calorimetry (ITC) binding to PDIa
T1 construct: made in house; host or cells: Escherichia coli BL21-Gold (DE3)
Protocol: All ITC experiments were carried out at 25° C. on MicoCal Auto-ITC200 system (GE Healthcare). […] ITC titration experiments were carried out at 25° C. with 19 injections, 2 μl per injection, and 180 seconds between each injection. The reference cell power was set to 5 μcal/sec. A control experiment was performed for each compound, where each compound was titrated into buffer to account for heat released due to dilution. This background was subtracted from test data before a final dissociation constant was obtained. […] Gibbs free energy, ΔG, was calculated from equation ΔG=ΔH-TΔS. All other parameters, Ka, n, ΔH, ΔS, were determined directly from the titration data.
LOC14 analogs were designed and synthesized as described in the synthetic schemes. The analogs were evaluated for their binding to PDIa using isothermal titration calorimetry (ITC) (results of certain compounds are shown in FIGS. 1A-1E). Next, the analogs were tested for their ability to rescue PC12 cells from mHTT^Q103 induced cell death in a dose-dependent manner (results of certain compounds are shown in FIG. 2).

[2] = test system: PC12 mHTTQ103 cells; test: Rescue of PC12 cells from mHTTQ103-induced cell death; format: cell-based, rat; details: for EC50: Rattus norvegicus
[3] = biological target: PDI (Homo sapiens, UniProt P07237); test: Enzymatic assay for inhibition of PDI using insulin as substrate; format: biochemical
[4] = Solubility (stock solvent)
[5] = physchem; details: organic solvent or mixture
[6] = test system: uninduced PC12 cells not expressing mHTTQ103; test: General cell toxicity in PC12 cell culture assay; format: cell-based
Protocol: Neuroprotection was assessed by each compound's ability to rescue cells from mutant-huntingtin-induced cell death (“Ind Q103” cells; blue). General cell toxicity of each compound was assessed in uninduced cells not expressing mutant-huntingtin protein (“Unind Q103” cells; red). NMP, DMSO, LOC14 in NMP and LOC14 in DMSO were used as controls.
Data from cells induced to express mHTT^Q103 (blue) and cells not expressing mHTT^Q103 (red) are plotted as mean percent of DMSO-treated uninduced cells±SD with n=3.
The follow-up testing of primary screen hits was performed in a similar way. Fresh powder stocks of primary hits were re-ordered from vendors, dissolved in DMSO and tested in a two-fold serial dilution across 10 wells in both tebufenozide-induced and uninduced PC12 mHTT^Q103 cells. Dose-response curves were plotted as mean±SD and fit to either four-parameter sigmoidal (for uninduced cells) or bell-shaped (induced) function using Prism (GraphPad Software).

[7] = rescue from mHTTQ103 induced cell death
[8] = N/A = not active, read-out: ITC KD
[9] = PC-12, Tables 5-13, PC12 cells, read-out: EC50
[10] = PC-12, rescue from mHTTQ103 induced cell death, read-out: PC12 cells EC50
[11] = Tables 5-13, NA = not active, read-out: Kd
[12] = FIG. 1, PDI A1a titrated into compound in 0.8% NMP, read-out: Kd1

T1 sequence (P07237 18-134): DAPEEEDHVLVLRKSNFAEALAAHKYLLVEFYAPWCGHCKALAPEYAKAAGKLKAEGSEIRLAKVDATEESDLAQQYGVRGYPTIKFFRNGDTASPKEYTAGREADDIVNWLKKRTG
PDI, sequence (P07237 18-508): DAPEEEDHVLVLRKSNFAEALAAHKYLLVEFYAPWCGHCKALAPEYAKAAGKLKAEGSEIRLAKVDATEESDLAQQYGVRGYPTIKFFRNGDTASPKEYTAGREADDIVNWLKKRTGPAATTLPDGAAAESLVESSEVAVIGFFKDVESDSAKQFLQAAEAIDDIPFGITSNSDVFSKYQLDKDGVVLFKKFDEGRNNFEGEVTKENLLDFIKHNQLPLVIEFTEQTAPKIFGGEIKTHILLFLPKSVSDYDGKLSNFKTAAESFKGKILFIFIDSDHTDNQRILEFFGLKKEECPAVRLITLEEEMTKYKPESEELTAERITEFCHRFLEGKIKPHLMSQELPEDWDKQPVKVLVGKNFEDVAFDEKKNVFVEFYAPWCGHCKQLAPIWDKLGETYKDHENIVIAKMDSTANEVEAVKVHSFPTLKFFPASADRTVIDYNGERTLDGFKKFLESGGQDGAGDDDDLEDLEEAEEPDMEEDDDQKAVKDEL

Row | SMILES | Max Viability (%) ([2]; Tables 5-13, PC12 cells) | PC12 cells Max % Viability [2, 7] | Kd [1, 8] | EC50 [2, 9] | EC50 [2, 10] | Solubility [5] | Kd [1, 11] | Solubility [4] | Solubility ([5]; NMP (N-Methyl-2-Pyrrolidine)) | Solubility ([5]; NMP) | further results
1 | O=c1c2ccccc2sn1-c1ccccc1 [LC-24] | 31% | 30.83% | – | – | – | – | – | – | – | – | Kd ([1]; Tables 6, 11, 12, read-out: Kd (nM), first value of two-site binding): 8 nM; Kd ([1]; Tables 6, 11, 12, read-out: Kd (nM), second value of two-site binding): 1140 nM; Kd ([1]; read-out: KD2): 1140 nM; EC50 ([2]; PC-12): 1130 nM; EC50 ([2]; PC-12, read-out: PC12 cells EC50): 1130 nM; inhibition of enzymatic (reductase) activity of PDI [3]: did not inhibit PDI's reductase activity
2 | Cc1ccc(-n2sc3ccccc3c2=O)c(Br)c1 [LC-36] | 15% | – | – | – | – | – | – | – | – | – | Kd ([1]; read-out: KD2): 25 nM; inhibition of enzymatic (reductase) activity of PDI [3]: did not inhibit PDI's reductase activity; Solubility ([4]; Tables 5-13, solvent not given (DMSO in Table 1)): 100 mM (≈ 32 mg/mL)
3 | O=C(C1CC1)N1CCN(Cn2sc3ncccc3c2=O)CC1 [LC-46] | 39% | 39.23% | 9.6 nM | 2830 nM | 2830 nM | 50 mM (≈ 15.9 mg/mL) | – | – | – | – | Kd ([1]; ITC assay, read-out: KD): 10 nM; Solubility ([5]; DMSO): 50 mM (≈ 15.9 mg/mL)
4 | Cc1cc(C)c2c(=O)[nH]sc2n1 [LC-50] | 65% | 65.19% | 3830 nM | 5180 nM | 5180 nM | 100 mM (≈ 18 mg/mL) | 3830 nM | 100 mM in DMSO | – | – | toxicity in PC12 cell culture assay [6]: complete loss of toxicity
5 | Cc1nnc2sn(CN3CCN(C(=O)C4CC4)CC3)c(=O)c2c1C [LC-59] | 59% | 59.20% | 8.2 nM | 10600 nM | 10600 nM | 100 mM (≈ 34.7 mg/mL) | 8 nM | 100 mM in DMSO | – | – | –
6 | Cc1ccc2c(=O)n(CN3CCN(C(=O)C4CC4)CC3)sc2c1 [LC-62, 2-((4-(cyclopropanecarbonyl)piperazin-1-yl)methyl)-6-methylbenzo[d]isothiazol-3(2H)-one] | 54% | 54.31% | 662 nM | 1580 nM | 1580 nM | 50 mM (≈ 16.6 mg/mL) | 662 nM | – | – | – | Solubility ([5]; DMSO): 50 mM (≈ 16.6 mg/mL)
7 | Cc1ccc2sn(CN3CCN(C(=O)C4CC4)CC3)c(=O)c2c1 [LC-63, 2-((4-(cyclopropanecarbonyl)piperazin-1-yl)methyl)-5-methylbenzo[d]isothiazol-3(2H)-one] | 66% | – | 240 nM | 659 nM | 659 nM | 50 mM (≈ 16.6 mg/mL) | 240 nM | – | – | – | Solubility ([5]; DMSO): 50 mM (≈ 16.6 mg/mL)
8 | O=c1c2ccccc2sn1CN1CCC(N2CCCCC2)CC1 [LC-64, 2-([1,4′-bipiperidin]-1′-ylmethyl)benzo[d]isothiazol-3(2H)-one] | 81% | 81.43% | – | 393 nM | 393 nM | 50 mM (≈ 16.6 mg/mL) | 1210 nM | – | – | – | Kd ([1]; read-out: ITC KD): 1210 nM; Solubility ([5]; DMSO): 50 mM (≈ 16.6 mg/mL)
9 | O=c1c2ccccc2sn1CN1CC[C@@H](O)C1 [LC-65, (R)-2-((3-hydroxypyrrolidin-1-yl)methyl)benzo[d]isothiazol-3(2H)-one] | 77% | 77.01% | 162 nM | 456 nM | 456 nM | 100 mM (≈ 25 mg/mL) | 162 nM | 100 mM in DMSO | – | – | –
10 | O=c1c2ccccc2on1Cc1ccccc1 [LC-67, 2-benzylbenzo[d]isoxazol-3(2H)-one] | – | 8.05% | – | – | – | – | – | 100 mM in DMSO | – | – | ITC KD ([1]; N/A = not active): Not active or irreversible; PC12 cells EC50 [2, 7]: not active
11 | O=c1c2cccnc2sn1CN1CCN(Cn2sc3ncccc3c2=O)CC1 [LC-68, 2,2′-(piperazine-1,4-diylbis(methylene))bis(isothiazolo[5,4-b]pyridin-3(2H)-one)] | 36% | 35.78% | – | 2060 nM | 2060 nM | – | – | – | 5 mM (≈ 2.07 mg/mL) | 5 mM (≈ 2.07 mg/mL) | ITC binding ([1]; FIG. 1, PDI A1a titrated into compound in 0.8% NMP): no binding; ITC KD ([1]; N/A = not active): Not active or irreversible
12 | O=c1c2cccc(F)c2sn1CN1CCN(Cn2sc3c(F)cccc3c2=O)CC1 [LC-69, 2,2′-(piperazine-1,4-diylbis(methylene))bis(7-fluorobenzo[d]isothiazol-3(2H)-one)] | 46% | 45.50% | 700 nM | 1970 nM | 1970 nM | – | 700 nM | – | 5 mM (≈ 2.24 mg/mL) | 5 mM (≈ 2.24 mg/mL) | Kd [1, 12]: 700 nM
13 | Cc1cc(C)c2c(=O)n(CN3CCN(Cn4sc5nc(C)cc(C)c5c4=O)CC3)sc2n1 [LC-70, 2,2′-(piperazine-1,4-diylbis(methylene))bis(4,6-dimethylisothiazolo[5,4-b]pyridin-3(2H)-one)] | 59% | 59.18% | – | 3090 nM | 3090 nM | – | 3800 nM | – | 5 mM (≈ 2.35 mg/mL) | 5 mM (≈ 2.35 mg/mL) | Kd [1, 12]: 3800 nM; Kd ([1]; read-out: ITC KD): 3800 nM
14 | Cc1nc2sn(CN3CCN(Cn4sc5nc(C)c(C)c(C)c5c4=O)CC3)c(=O)c2c(C)c1C [LC-71, 2,2′-(piperazine-1,4-diylbis(methylene))bis(4,5,6-trimethylisothiazolo[5,4-b]pyridin-3(2H)-one)] | 41% | 40.98% | – | 1020 nM | 1020 nM | – | – | – | 2.5 mM (≈ 1.25 mg/mL) | 2.5 mM (≈ 1.25 mg/mL) | –
15 | Cc1nnc2sn(CN3CCN(Cn4sc5nnc(C)c(C)c5c4=O)CC3)c(=O)c2c1C [LC-72, 2,2′-(piperazine-1,4-diylbis(methylene))bis(4,5-dimethylisothiazolo[5,4-c]pyridazin-3(2H)-one)] | 10% | 10.26% | – | – | – | – | – | – | 1 mM (≈ 0.473 mg/mL) | 1 mM (≈ 0.473 mg/mL) | PC12 cells EC50 [2, 7]: Not Active
16 | O=c1c2cccnc2sn1CO [LC-73, 2-(hydroxymethyl)isothiazolo[5,4-b]pyridin-3(2H)-one] | 63% | 63.16% | – | 2480 nM | 2480 nM | 100 mM (≈ 18.2 mg/mL) | – | 100 mM in DMSO | – | – | Kd ([1]; FIG. 1, PDI A1a titrated into compound in DMSO, read-out: Kd): 9.8 nM; Kd ([1]; ITC assay, read-out: KD): 10 nM
